Source: patent US20080292736A1, “Bioavailability enhancing activity of carum carvi extracts and fractions thereof” (COUNCIL OF SCIENTIFIC AND INDUSTRIAL RESEARCH, priority 2001, published 2008)
Read-outs that look alike come from different tables or passages of the source.

Tests used:
[1] = rat, in vivo; for % Enhancement in bioavailability, BE from Zingiber officinale: 35 mg/kg; for % Enhancement in bioavailability, Carum carvi (Cc) Extr.: 30 mg/kg
Procedure: (§1) Bioenhancers of Zingiber officinale, mean 50% alcoholic extract of fresh ginger. The doses remain unchanged whether the bioenhancers are used alone or in combination.
(§2) The amount of bioenhancers used are given below: • i. from Carum carvi: extract 30 mg/kg body weight (rats); Fraction No. 1: 15 mg/kg body weight (rats) • ii. piperine 8 mg/kg body weight (rats) • iii. Zingiber officinale: 35 mg/kg body weight (rats) • The drug used was rifampicin (40 mg/kg). The drug alone or in combination with the bioenhancers was administered to rats as given below: • Group 1: control • Group 2: Rifampicin alone • Group 3: bioenhancer alone • Group 4: Rifampicin with Carum carvi bioenhancer
(§3) Blood from the control/treated animals at predetermined intervals (0-24 hours) (total 14 timings). Rifampicin was extracted from the blood (plasma) using dichloromethane. […] The mobile phase was phosphate buffer:acetonitrile in a ratio of 40:60, and a flow rate of 1.0 ml/min.

[2] = Enhancement of bioavailability of drugs given to rats with bioenhancers (plasma drug level by HPLC); settings: for % Enhancement in bioavailability, BE from Carum carvi: drug with Carum carvi bioenhancer (aqueous or 50% alcoholic extract 30 mg/kg or Fraction No. 1 15 mg/kg), drug dose mg/kg; for % Enhancement in bioavailability, Carum carvi + Zingiber officinale: drug with Carum carvi bioenhancer and Zingiber officinale 35 mg/kg; for % Enhancement in bioavailability, Carum carvi + Zingiber officinale / % Enhancement in bioavailability, Carum carvi + Piperine / % Enhancement in bioavailability, BE from Zingiber officinale / % Enhancement in bioavailability, Piperine as BE: drug dose as in row; for % Enhancement in bioavailability, Carum carvi + Piperine: drug with Carum carvi bioenhancer and piperine 8 mg/kg; for % Enhancement in bioavailability, BE from Zingiber officinale: drug with Zingiber officinale 50% alcoholic extract of fresh ginger 35 mg/kg; for % Enhancement in bioavailability, Piperine as BE: drug with piperine 8 mg/kg
Procedure: as §1, §2, §3

Compound | % Enhancement in bioavailability, BE from Carum carvi [1] | % Enhancement in bioavailability, Carum carvi + Piperine [1] | % Enhancement in bioavailability, Carum carvi + Zingiber officinale [1] | % Enhancement in bioavailability, BE from Zingiber officinale [1] | % Enhancement in bioavailability, Carum carvi + Zingiber officinale, Extr. (Cc) [1] | % Enhancement in bioavailability, Carum carvi + Zingiber officinale, Frac 1. (Cc) [1] | % Enhancement in bioavailability, Carum carvi + piperine, Extr. (Cc) [1] | % Enhancement in bioavailability, Carum carvi + piperine, Frac 1. (Cc) [1] | % Enhancement in bioavailability, Carum carvi (Cc) Extr. [1] | further results
CC[C@H]1OC(=O)[C@H](C)[C@@H](O[C@H]2C[C@@](C)(OC)[C@@H](O)[C@H](C)O2)[C@H](C)[C@@H](O[C@@H]2O[C@H](C)C[C@H](N(C)C)[C@H]2O)[C@](C)(O)C[C@@H](C)/C(=N\OCOCCOC)[C@H](C)[C@@H](O)[C@]1(C)O [Roxythromycin] | 65% | 95% | 98% | 72% | – | – | – | – | – | –
Silymarin | – | – | – | 33% | 38% | 41% | 36% | 45% | 31% | –
O=C1O[C@H]([C@@H](O)CO)C(O)=C1O [Vit C] | – | – | – | Nil | Nil | Nil | Nil | Nil | Nil | –
CC[C@@H](CO)NCCN[C@@H](CC)CO [Ethambutol] | Nil | nil | nil | Nil | – | – | – | – | – | –
NCCCC[C@H](N)C(=O)O [Lysine] | – | – | – | 19% | 39% | 43% | 33% | 38% | 26% | –
CC(C)C[C@H](N)C(=O)O [Leucine] | – | – | – | 24% | 35% | 40% | 29% | 32% | 19% | –
O=C(O)Cc1ccccc1Nc1c(Cl)cccc1Cl [Diclofenac] | Nil | 100% | 95% | 90% | – | – | – | – | – | –
C=CC[C@@H]1/C=C(\C)C[C@H](C)C[C@H](OC)[C@H]2O[C@@](O)(C(=O)C(=O)N3CCCC[C@H]3C(=O)O[C@H](/C(C)=C/[C@@H]3CC[C@@H](O)[C@H](OC)C3)[C@H](C)[C@@H](O)CC1=O)[C@H](C)C[C@@H]2OC [Tacrolimus] | 90% | 95% | 114% | 75% | – | – | – | – | – | –
[Cu] [Copper] | – | – | – | nil | Nil | Nil | nil | Nil | nil | –
CNC(=C[N+](=O)[O-])NCCSCc1ccc(CN(C)C)o1 [Ranitidine] | 67% | 70% | 150% | 147% | – | – | – | – | – | –
CCn1cc(C(=O)O)c(=O)c2cc(F)c(N3CCNCC3)cc21 [Norfloxacin] | 55% | 65% | 60% | Nil | – | – | – | – | – | –
Cc1onc(-c2ccccc2Cl)c1C(=O)N[C@@H]1C(=O)N2[C@@H]1SC(C)(C)[C@@H]2C(=O)O [Cloxacillin] | 110% | 95% | 110% | 76% | – | – | – | – | – | –
C[C@@H]1O[C@@H](OC[C@H]2O[C@@H](Oc3c(-c4ccc(O)c(O)c4)oc4cc(O)cc(O)c4c3=O)[C@H](O)[C@@H](O)[C@@H]2O)[C@H](O)[C@H](O)[C@H]1O [Rutin] | – | – | – | 42% | 34% | 42% | 36% | 40% | 34% | –
CC[C@H]1OC(=O)[C@H](C)[C@@H](O[C@H]2C[C@@](C)(OC)[C@@H](O)[C@H](C)O2)[C@H](C)[C@@H](O[C@@H]2O[C@H](C)C[C@H](N(C)C)[C@H]2O)[C@](C)(O)C[C@@H](C)C(=O)[C@H](C)[C@@H](O)[C@]1(C)O [Erythromycin] | 70% | 100% | 105% | 68% | – | – | – | – | – | –
C[C@@H]1[C@H](O)[C@@H](C)/C=C/C=C/C=C/C=C/C=C/C=C/C=C/[C@H](O[C@@H]2O[C@H](C)[C@@H](O)[C@H](N)[C@@H]2O)C[C@@H]2O[C@](O)(C[C@@H](O)C[C@@H](O)[C@H](O)CC[C@@H](O)C[C@@H](O)CC(=O)O[C@H]1C)C[C@H](O)[C@H]2C(=O)O [Amphotericin B] | – | – | – | – | – | – | – | – | – | % Enhancement in bioavailability, BE from Carum carvi [2]: 78%; % Enhancement in bioavailability, Carum carvi + Zingiber officinale [2]: 80%; % Enhancement in bioavailability, Carum carvi + Piperine [2]: 90%; % Enhancement in bioavailability, BE from Zingiber officinale [2]: Nil; % Enhancement in bioavailability, Piperine as BE [2]: nil
C=CC1=C(C(=O)O)N2C(=O)[C@@H](NC(=O)/C(=N\O)c3csc(N)n3)[C@H]2SC1 [Cefidinir] | – | – | – | – | – | – | – | – | – | % Enhancement in bioavailability, BE from Carum carvi [2]: 89%; % Enhancement in bioavailability, Carum carvi + Zingiber officinale [2]: 130%; % Enhancement in bioavailability, Carum carvi + Piperine [2]: 95%; % Enhancement in bioavailability, BE from Zingiber officinale [2]: 35%; % Enhancement in bioavailability, Piperine as BE [2]: 60%
